Paper PMC11945486, “TAS1R2/TAS1R3 Single-Nucleotide Polymorphisms Affect Sweet Taste Receptor Activation by Sweeteners: The SWEET Project” (Nutrients, 2025)
No end group written: not given here.

Target: T1, mTAS1R2-WT/mTAS1R3-WT (Mus musculus, UniProt Q925D8+Q925I4)
T1 construct: expressed in transfected cells; host or cells: HEK293T-Gα16gust44
T1 sequence (Q925I4 20-843): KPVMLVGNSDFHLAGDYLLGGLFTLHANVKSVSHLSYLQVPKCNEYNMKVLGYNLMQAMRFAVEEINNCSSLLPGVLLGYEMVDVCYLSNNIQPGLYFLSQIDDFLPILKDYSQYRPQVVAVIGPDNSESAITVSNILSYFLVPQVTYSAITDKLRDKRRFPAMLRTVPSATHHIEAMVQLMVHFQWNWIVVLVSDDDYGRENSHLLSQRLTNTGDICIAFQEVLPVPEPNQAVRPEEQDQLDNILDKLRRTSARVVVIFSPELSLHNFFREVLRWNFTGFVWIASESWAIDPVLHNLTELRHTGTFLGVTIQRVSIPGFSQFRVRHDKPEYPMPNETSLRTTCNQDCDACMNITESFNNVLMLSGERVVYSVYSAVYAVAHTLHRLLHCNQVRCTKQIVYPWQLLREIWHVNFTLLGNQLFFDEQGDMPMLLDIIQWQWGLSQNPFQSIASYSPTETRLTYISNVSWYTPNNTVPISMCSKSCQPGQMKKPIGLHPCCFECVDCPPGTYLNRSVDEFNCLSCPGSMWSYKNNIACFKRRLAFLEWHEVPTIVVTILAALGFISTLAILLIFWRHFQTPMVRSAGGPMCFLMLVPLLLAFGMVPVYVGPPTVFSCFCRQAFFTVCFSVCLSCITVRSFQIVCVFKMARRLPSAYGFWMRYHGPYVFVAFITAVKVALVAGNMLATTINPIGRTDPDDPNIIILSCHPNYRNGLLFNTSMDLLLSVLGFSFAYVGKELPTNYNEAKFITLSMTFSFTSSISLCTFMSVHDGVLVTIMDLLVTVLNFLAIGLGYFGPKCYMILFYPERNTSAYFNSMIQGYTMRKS
T1 sequence (Q925D8 21-858): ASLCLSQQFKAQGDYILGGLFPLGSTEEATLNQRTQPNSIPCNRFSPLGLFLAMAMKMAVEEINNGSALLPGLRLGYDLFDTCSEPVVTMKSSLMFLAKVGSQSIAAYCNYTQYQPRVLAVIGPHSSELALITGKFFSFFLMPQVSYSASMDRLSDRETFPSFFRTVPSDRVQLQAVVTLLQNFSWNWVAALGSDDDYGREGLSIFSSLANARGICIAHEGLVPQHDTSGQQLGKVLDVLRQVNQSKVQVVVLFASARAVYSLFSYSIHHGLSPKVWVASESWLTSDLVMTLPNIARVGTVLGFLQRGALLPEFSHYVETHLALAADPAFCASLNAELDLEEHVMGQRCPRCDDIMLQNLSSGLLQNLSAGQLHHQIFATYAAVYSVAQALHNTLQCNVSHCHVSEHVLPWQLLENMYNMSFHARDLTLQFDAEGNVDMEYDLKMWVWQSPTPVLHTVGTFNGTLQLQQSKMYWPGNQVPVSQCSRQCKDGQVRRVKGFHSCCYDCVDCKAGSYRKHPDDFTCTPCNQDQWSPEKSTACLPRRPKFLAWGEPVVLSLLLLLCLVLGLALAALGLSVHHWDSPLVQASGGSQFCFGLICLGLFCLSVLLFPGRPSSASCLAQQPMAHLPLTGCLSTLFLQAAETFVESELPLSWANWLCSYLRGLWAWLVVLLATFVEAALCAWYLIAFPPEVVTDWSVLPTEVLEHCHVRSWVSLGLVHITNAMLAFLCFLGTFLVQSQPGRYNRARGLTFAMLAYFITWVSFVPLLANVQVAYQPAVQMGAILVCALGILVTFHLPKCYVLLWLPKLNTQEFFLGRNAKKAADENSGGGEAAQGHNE
Experiment: Calcium mobilisation assay, HEK293T-Gα16gust44 cells, mouse sweet taste receptor WT
Type: cell-based
Conditions: for EC50 / Max ΔF/F0: mTAS1R2-WT + mTAS1R3-WT, "-": no activation; for Max ΔF/F0: maximal signal amplitude; for activation of the mouse sweet taste receptor: result in words
Procedure: The HEK293T cells were kindly provided by Jay P. Slack (Givaudan Flavors Corporation; Cincinnati, OH, USA). HEK293T cells stably transfected with Gα16gust44 [43, 67] were seeded in poly-D-lysine-coated clear-bottom black 96-well plates (0.35 × 10^5 cells/well) in high-glucose DMEM supplemented with 2 mM GlutaMAX, 10% dialysed foetal bovine serum with penicillin/streptomycin and G418 (400 μg/mL) at 37 °C and 6.3% CO2 in a humidified atmosphere as previously reported. […] As a negative control, HEK293T cells were mock-transfected with the empty expression vector. After a further 24 h of incubation, the HEK293T cells were washed with C1 buffer (130 mM NaCl, 5 mM KCl, 10 mM HEPES pH 7.4 and 2 mM CaCl2). The 96-well plates containing the cells were then stimulated with sweet-tasting compounds. […] Different concentration ranges were tested depending on the sweet compound injected. The Ca^2+ changes were expressed as fractional changes in fluorescent light intensity: ΔF/F = (F − F0)/F0, where F was the fluorescent light intensity at each point, and F0 was the value of emitted fluorescent light prior to stimulus application. To calculate dose–response relationships, the changes in fluorescence upon stimulus application were averaged, mock-subtracted and baseline-corrected. The dose–response data obtained were adjusted using a 4-parameter logistic equation. The half-maximal effective concentrations (EC50 values) and maximal signal amplitudes were calculated using SigmaPlot software (version 15.0) (Systat Software; San Jose, CA, USA).
HEK293T-Gα16gust44 cells were transiently cotransfected with pcDNA6-MAX-mTAS1R2-FLAG, pcDNA4-MAX-mTAS1R3-WT-FLAG or pcDNA4-MAX-mTAS1R3-I60T-FLAG, and pCMV-GCaMP5G as previously described in detail. After 24 h, the cells were washed with C1 buffer and stimulated with a logarithmically increasing range of sweetener concentrations. Calcium responses during automated application were monitored using a FlexStation®3 Multi-Mode microplate reader. The dose–response curves, EC50 values and maximal signal amplitudes were calculated as previously described.
For in vitro calcium mobilisation assay performed on hTAS1R2-SNPs, hTAS1R3-SNPs and mTAS1R3-I60T, 6 to 7 concentrations were tested for each sweet compound, plus buffer alone. All concentration–receptor combinations were measured in duplicate, and each experiment was repeated at least 4 times (8 wells/concentration). Results were expressed for each concentration as ΔF/F mean ± SEM and represented as dose–response curves.

EC50 [µM] | Max ΔF/F0 | activation of the mouse sweet taste receptor | Molecule
439 ± 10 | 1.63 ± 0.02 | – | CC1=CC(=O)NS(=O)(=O)O1 [Acesulfame K, acesulfame K]
– | – | not activated | COc1ccc(CCC(=O)c2c(O)cc(O[C@@H]3O[C@H](CO)[C@@H](O)[C@H](O)[C@H]3O[C@@H]3O[C@@H](C)[C@H](O)[C@@H](O)[C@H]3O)cc2O)cc1O [NHDC, neohesperidin dihydrochalcone]
– | – | not activated | COC(=O)[C@H](Cc1ccccc1)NC(=O)[C@H](CC(=O)O)NCCC(C)(C)C [Neotame]
– | – | not activated | C=C(C)[C@@H]1CC=C(/C=N/O)CC1 [Perillartine, perillartine]
44 ± 4 | 1.41 ± 0.05 | – | C=C1C[C@@]23CC[C@H]4[C@@](C)(CCC[C@@]4(C)C(=O)O[C@@H]4O[C@H](CO)[C@@H](O)[C@H](O[C@@H]5O[C@H](CO)[C@@H](O)[C@H](O)[C@H]5O)[C@H]4O[C@@H]4O[C@H](CO)[C@@H](O)[C@H](O)[C@H]4O)[C@@H]2CC[C@]1(O[C@@H]1O[C@H](CO)[C@@H](O)[C@H](O[C@@H]2O[C@H](CO)[C@@H](O)[C@H](O)[C@H]2O)[C@H]1O[C@@H]1O[C@H](CO)[C@@H](O)[C@H](O)[C@H]1O)C3 [Rebaudioside M, rebaudioside M]
778 ± 22 | 2.03 ± 0.02 | – | OC[C@H]1O[C@H](O[C@]2(CCl)O[C@H](CCl)[C@@H](O)[C@@H]2O)[C@H](O)[C@@H](O)[C@H]1Cl [Sucralose]
– | – | not activated | brazzein (QDKCKKVYENYPVSKCQLANQCNYDCKLDKHARSGECFYDEKRNLQCICDYCEY; ends and bridges not checked; cysteine pairing not given here; UniProt P56552 1-54, looked up) [sweet-tasting protein obtained by recombinant production using the yeast Pichia pastoris]
– | – | not activated | thaumatin

Molecule | EC50 [µM] | Max ΔF/F0 | activation of the mouse sweet taste receptor
O=S(=O)(O)NC1CCCCC1 [Cyclamate, cyclamate] | – | – | not activated
C[C@H](CC[C@@H](O[C@@H]1O[C@H](CO[C@@H]2O[C@H](CO)[C@@H](O)[C@H](O)[C@H]2O)[C@@H](O)[C@H](O)[C@H]1O[C@@H]1O[C@H](CO)[C@@H](O)[C@H](O)[C@H]1O)C(C)(C)O)[C@H]1CC[C@@]2(C)[C@@H]3CC=C4[C@@H](CC[C@H](O[C@@H]5O[C@H](CO[C@@H]6O[C@H](CO)[C@@H](O)[C@H](O)[C@H]6O)[C@@H](O)[C@H](O)[C@H]5O)C4(C)C)[C@]3(C)[C@H](O)C[C@]12C [Mogroside V, mogroside V] | 133 ± 6 | 0.84 ± 0.02 | –
